Measured values: ChEMBL document CHEMBL1126757, “Benzoquinazoline inhibitors of thymidylate synthase: enzyme inhibitory activity and cytotoxicity of some 3-amino- and 3-methylbenzo[f]quinazolin-1(2H)-ones” (J Med Chem, 1993)
Values belong to the compound of their own block, whether it stands above or below them.

How the values were obtained:
[1] = target: Thymidylate synthase (Escherichia coli) (UniProt C3SWJ7); assay: Tested for percent inhibition against thymidylate synthase (TS) in Escherichia coli at 6.08 uM
[2] = target: T1, Thymidylate synthase (Homo sapiens, UniProt P04818)
Target sequence in this assay (P04818 whole entry): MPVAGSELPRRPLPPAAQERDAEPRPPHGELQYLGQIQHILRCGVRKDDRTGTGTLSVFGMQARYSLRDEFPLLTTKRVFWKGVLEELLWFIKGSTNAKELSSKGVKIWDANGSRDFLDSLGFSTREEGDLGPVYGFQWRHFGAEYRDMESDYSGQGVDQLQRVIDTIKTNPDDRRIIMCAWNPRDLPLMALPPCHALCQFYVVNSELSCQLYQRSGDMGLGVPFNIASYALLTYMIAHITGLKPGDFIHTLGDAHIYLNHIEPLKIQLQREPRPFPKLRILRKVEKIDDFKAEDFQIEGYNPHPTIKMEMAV

[3] = system: SW480; assay: cells; conditions: Homo sapiens
[4] = target: Thymidylate synthase (Escherichia coli) (UniProt C3SWJ7); assay: Tested for percent inhibition against thymidylate synthase (TS) in Escherichia coli at 0.22 uM
[5] = system: Thymidylate synthase (Bos taurus); assay: Tested for percent inhibition against thymidylate synthase (TS) in calf thymus at 220 uM
[6] = system: Thymidylate synthase (Candida albicans); assay: Tested for percent inhibition against thymidylate synthase (TS) in Candida albicans at 100 uM
[7] = Michaelis-Menten constant for the compound was determined; format: ADME
[8] = target: T1, Thymidylate synthase; assay: Tested for percent inhibition against thymidylate synthase (TS) in human at 7.8 uM
Target sequence in this assay (P04818 whole entry, looked up): as the sequence (P04818 whole entry) above

[9] = target: Thymidylate synthase (Escherichia coli) (UniProt C3SWJ7); assay: Tested for inhibition against thymidylate synthase (TS) in Escherichia coli at 105 uM
[10] = target: T1, Thymidylate synthase; assay: Tested against thymidylate synthase (TS) in human at 105 uM
Target sequence in this assay (P04818 whole entry, looked up): as the sequence (P04818 whole entry) above

[11] = target: T1, Thymidylate synthase; assay: Tested for percent inhibition against thymidylate synthase (TS) in human at 5.6 uM
Target sequence in this assay (P04818 whole entry, looked up): as the sequence (P04818 whole entry) above

[12] = target: Thymidylate synthase (Escherichia coli) (UniProt C3SWJ7); assay: Tested for percent inhibition against thymidylate synthase (TS) in Escherichia coli at 5.6 uM
[13] = system: Thymidylate synthase (Candida albicans); assay: Tested for percent inhibition against thymidylate synthase (TS) in Candida albicans at 204 uM
[14] = target: Thymidylate synthase (Escherichia coli) (UniProt C3SWJ7); assay: Tested for inhibition against thymidylate synthase (TS) in Escherichia coli at 47 uM
[15] = target: Thymidylate synthase (Escherichia coli) (UniProt C3SWJ7); assay: Tested for inhibition against thymidylate synthase (TS) in Escherichia coli at 56.8 uM
[16] = target: Thymidylate synthase (Escherichia coli) (UniProt C3SWJ7); assay: Tested against thymidylate synthase (TS) in E. coli at […]
[17] = target: T1, Thymidylate synthase; assay: Tested against thymidylate synthase (TS) in human at […]
Target sequence in this assay (P04818 whole entry, looked up): as the sequence (P04818 whole entry) above

[18] = system: Thymidylate synthase (Candida albicans); assay: Tested against thymidylate synthase (TS) in Candida albicans at 84 uM
[19] = target: Thymidylate synthase (Escherichia coli) (UniProt C3SWJ7); assay: Tested for inhibition against thymidylate synthase (TS) in Escherichia coli 148 uM
[20] = target: T1, Thymidylate synthase; assay: Activity against human thymidylate synthase (TS); conditions: read-out: I50
Target sequence in this assay (P04818 whole entry): as above

[21] = target: Thymidylate synthase (Escherichia coli, UniProt C3SWJ7); assay: Tested against thymidylate synthase (TS) in E. coli at 64.8 uM
Chain of Thymidylate synthase (Escherichia coli, UniProt C3SWJ7) (C3SWJ7 whole entry): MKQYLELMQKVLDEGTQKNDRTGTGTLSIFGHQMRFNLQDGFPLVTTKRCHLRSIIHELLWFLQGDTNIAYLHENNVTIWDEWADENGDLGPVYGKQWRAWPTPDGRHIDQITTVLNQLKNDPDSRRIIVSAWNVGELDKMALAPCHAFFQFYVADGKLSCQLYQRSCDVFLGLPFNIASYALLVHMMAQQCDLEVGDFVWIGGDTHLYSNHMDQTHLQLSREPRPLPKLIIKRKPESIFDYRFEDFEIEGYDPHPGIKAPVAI

inhibition [1]: 33%
IC50 [2]: 15.6 µM
IC50 [3]: > 100 µM
Compound: Nc1nc(O)c2c(ccc3cccc(N)c32)n1

inhibition [4]: 0%
inhibition [5]: 41%
inhibition [6]: 2.8%
Compound: Nc1nc(O)c2c(n1)CCc1c(-c3ccccc3)cccc1-2

Km [7]: 3 µM
Compound: O=c1ccn(C2O[C@H](COP(=O)(O)O)[C@@H](O)[C@@H]2O)c(=O)[nH]1 (stereo partly drawn)

inhibition [8]: 68.3%
IC50 [3]: 25 µM
Compound: Nc1nc(O)c2c(ccc3c([N+](=O)[O-])c(Br)ccc32)n1

inhibition [9]: 0%
inhibition [10]: 16%
IC50 [3]: 65 µM
Compound: Cc1nc(O)c2c(n1)CCc1cc(Br)ccc1-2

inhibition [11]: 10%
inhibition [12]: 0%
inhibition [13]: 13.1%
Compound: Nc1nc(O)c2c(ccc3cc([N+](=O)[O-])ccc32)n1

inhibition [14]: 40%
IC50 [2]: 54.9 µM
Compound: Nc1nc(O)c2c(n1)CCc1c(I)cccc1-2

inhibition [15]: 40%
IC50 [3]: 25 µM
Compound: Nc1nc(O)c2c(ccc3c(Cl)cccc32)n1

inhibition [16]: 8.5%
inhibition [17]: 25%
IC50 [3]: 15 µM
inhibition [18]: 4.8%
Compound: Cc1nc(O)c2c(ccc3cc(F)ccc32)n1

inhibition [19]: 24%
IC50 [3]: 70 µM
Compound: CCOc1ccc2c(c1)-c1c(O)nc(N)nc1CC2

IC50 [20]: 154 µM
Compound: Cc1nc2c(c(=O)[nH]1)-c1cccc(I)c1CC2

inhibition [21]: 40%
IC50 [3]: > 100 µM
Compound: CNc1nc(O)c2c(n1)CCc1ccccc1-2
